Results published in patent publication US20030092692A1, “Cytoprotective steroids (II)” (priority 2000, published 2003).

Columns and labels:
[1] = system: NMDA receptors; details: cited from earlier work
[2] = system: estrogenic activity; details: cited from earlier work
[3] = system: CA1 pyramidal cell layer of organotypic hippocampal slice cultures; assay: Hypoxic challenge of organotypic hippocampal slice cultures (PI fluorescence); assay type: cell-based, Wistar rat; details: 180 min hypoxia, 24 h recovery, hypoxia control 27.6±3.7%
Protocol: Organotypic hippocampal slice cultures were prepared using the basic method of Pringle et al (1997) modified as follows:
Wistar rat pups (8-11 days old) were decapitated and the hippocampus rapidly dissected into ice-cold Goy's balanced salt solution supplemented with 4.5 mg/ml glucose. Slices were separated and plated into Millicell CM culture inserts (4 per well) and maintained at 37° C./5% CO2 for 14 days. Maintenance medium consisted of 25% heat-inactivated horse serum, 25% Hank's balanced salt solution (HBSS) and 50% minimum essential medium with added Earle's salts (MEM) supplemented with 1 mM glutamine and 4.5 mg/ml glucose.
Experimental hypoxia was performed as described previously (Pringle et al., (1996) Stroke 27, p2124-2130, (1997) Brain Research 755-46). Briefly, cultures were transferred to serum free medium (SFM—75% MEM, 25% HBSS supplemented with 1 mM glutamine and 4.5 mg/ml glucose) containing 5 μg/ml of the fluorescent exclusion dye propidium iodide (PI). Cultures were allowed to equilibrate in SFM for 60 minutes prior to imaging. PI fluorescence was detected using a standard Leica inverted microscope fitted with a rhodamine filter set (Leica N2). Any cultures in which PI fluorescence was detected at this stage were excluded from further study. Hypoxia was induced by transferring cultures to SFM (+PI) which had been saturated with 95% N2/5% CO2. Culture plates (without lids) were then sealed into an airtight chamber in which the atmosphere was saturated with 95% N2/5% CO2 by continuously blowing through gas at 1000 ml/min for ten minutes before being sealed and placed in the incubator for 170 mins (total time of hypoxia was therefore 180 mins). At the end of the hypoxia period cultures were returned to normoxic SFM containing PI and placed back in the incubator for 24 hours.
Neuronal damage was assessed as described previously (Pringle et al., 1996, 1997) using NIH Image 1.60 running on an Apple IIsi computer. Images were captured using a COHU monochrome camera and saved onto optical disk for offline analysis using NIH image. Light transmission images were captured prior to the addition of drugs, and PI fluorescence images recorded at the end of the 24 hour post-hypoxia recovery period. The areas of the CA1, CA3 and dentate gyrus (DG) cell layers were determined from the transmission image. The area of PI fluorescence in each of the cell layers was measured using the density slice function within NIH Image, and neuronal damage expressed as the percentage of the regional area in which PI fluorescence was detected above background.
Steroid compounds were prepared by making an initial 1 mg/ml solution in ethanol and further diluting down in SFM. Compounds were included in the cultures for 45 minutes prior to hypoxia, during the hypoxic episode and during the post-hypoxic recovery period. Control experiments consisted of cultures treated with vehicle alone.

[4] = system: Rat cortical neurons; assay: Glutamate induced neuronal cell death of primary cortical cultures (LDH release); assay type: cell-based, Wistar rat; details: for effect on normal cell death: without glutamate
Protocol: Rat cortical neurons were cultured by modification of the methods of Dichter (1973) Brain Res 149, p279-293 and Durkin et al (1996) J. Neurochem 66, p951-962. A female Wistar rat (Janvier, Le Genest-St-Isle, France: ref RJ WAF151) of 17 days gestation was killed by cervical disclocation, the foetuses removed on embryonoic day 17 and brains removed and placed in ice-cold calcium/magnesium free Hanks balanced salt solution (HBSS: Gibco Life Technologies, Cergy-Pontoise, France: ref 14170-088 batch 302790). Each cortex was dissected and meninges were carefully removed.
The cortical neurons were dissociated by trypsinization for 5 minutes at 37° C. (trypsin: 0.5 mg/ml: Difco, LPCR, Strasbourg: ref 0152-14 batch 128856JC) and the reaction stopped by addition of HBSS containing calcium and magnesium (HBSS+ Gibco ref 24020-091; batch 3010598) with 10% of fetal bovine serum FBS; Gibco; ref 1027-098; batch 40Q1681K and 1 mg/ml DNase I (Boehringer Mannheim, Meylan, France; ref 1284938; batch 14880300).
The suspension was triturated with a 10 ml pipette (stripette Costar, Dutscher, Brumath, France) and was added in a centrifuge tube (Tube 50 ml Corning, Dutscher) containing 20 ml HBSS^− with 3.5% of BSA (Sigma, L'Isle D'Abeau Chesnes, ref. A6003, batch 29H7606) and centrifuged at low speed (150×g) for 10 min (apparatus Sigma 2-15, Bioblock, Illkirch, France).
The cells were resuspended in Dulbecco's Modified Eagle Medium (DMEM; Gibco; ref. 41965-039; batch 3032129), containing 20% FBS. Viable cells were quantified and plated at 35,000/well in 96 well plates (Nunclon, Gibco) previously coated with poly-L-lysine (0.01 mg/ml, France; ref. P5899; batch 28H8504). Cells were allowed to adhere 2 h and maintained in a humidified incubator at 37° C. in 5% CO2-95% air atmosphere.
Culture medium was then changed to a medium consisting of DMEM, 10% heat-inactivated FBS, 10% heat-inactived horse serum (Gibco, ref. 16505-080; batch 3030347) and 1% L-Glutamine (Gibco, ref. 25030-024; batch 3031499).
Since the cultures were mixed populations containing both neurons and glial cells, to minimize glial growth, the cultures were treated for 2 days with 15 μg/ml of 5-fluoro-2′-deoxyuridine (Sigma; ref. F8791; batch 97H4048) and 35 μg/ml of uridine (Sigma, ref. U3003; batch 18H11965) on day 4 of culture.
Following exposure to mitotic inhibitors, one-half of the medium was removed and replaced with growth medium consisting of 89% DMEM, 10% horse serum and 1% L-glutamine.
Glutamate toxicity experiments were performed after 13 days in culture (Glutamic acid; Sigma, ref. G6904; batch 18H11381).
On day 12, twenty-four hours before glutamate exposure, cultures were washed with DMEM and placed in medium DMEM/Ham12 with supplements but without estradiol.
The reference compounds, estradiol (Sigma, ref. E8875; batch 98H40953) and DHEA (Sigma, ref. D4000; batch 97H0301), and test compound were added at concentrations of 2, 10, 50 and 100 nM. Human FGF-basic (Tebu, Le Perray-en-Yvelines, France; ref. 100-18B; batch 107R0806 E118) was included as an additional reference and was tested at 5, 10 and 20 ng/ml. All compounds were dissolved at 10 mM in ethanol 100% (LPCR, ref. 20821467; batch J109), diluted 10,000 fold in DMEM and stocked at −20° C.
The effect of the test molecule on survival of cultured neurones was investigated alone and in intoxication conditions. The effect of the ethanol was also tested at the highest concentration used for dilution of the test molecules (100 nM=0.001% ethanol).
On day 13, cultures were exposed to glutamate 0.50, 100, 150, 200, 250, 300, 400 and 500 μM for 10 min at 37° C. in DMEM/hamF12 with supplement. The effects of the 2 reference compounds and the test compound was investigated in the presence of glutamate.
After the incubation period, the cultures were washed with DMEM and placed in DMEM/Ham12 with supplement either in the absence or presence of the compound to evaluate their post intoxication effects. […]

Compound: 3α-hydroxy-5β-pregnan-20-one sulphate
- decrease of NMDA response [1]: 76%

Compound: CC12CCC3c4ccc(O)cc4CC(=O)C3C1CCC2O (stereo not shown) [7-keto-estradiol]
- estrogenic activity as fraction of that of estrone [2]: 1/300

Compound: CC(=O)[C@H]1CC[C@H]2[C@@H]3C(=O)C=C4C[C@@H](OS(=O)(=O)O)CC[C@]4(C)[C@H]3CC[C@]12C [7-keto-pregnenolone sulphate]
- decrease of NMDA response [1]: 12%

Compound: C[C@]12CC[C@H](O)CC1=C[C@@H](O)[C@@H]1[C@@H]2CC[C@]2(C)C(=O)CC[C@@H]12 [7α-hydroxy-DHEA]
- neuronal damage: PI fluorescence as % of CA1 ([3]; 10 nM): 1.1±0.9%
- neuronal death in CA1 ([3]; concentration not given): 4.3±1.3%
- effect on normal cell death ([4]; 10 nM): significantly decreased normal cell death

Compound: C[C@]12CC[C@@H]3c4ccc(O)cc4C[C@@H](O)[C@H]3[C@@H]1CC[C@@H]2O [7α-hydroxy-estradiol, Estra-1,3,5(10)-triene 3,7α,17β-triol]
- neuronal damage: PI fluorescence as % of CA1 ([3]; 1 nM): 21.5±11.3%
- neuronal damage: PI fluorescence as % of CA1 ([3]; 10 nM): 13.0±4.7%
- neuronal damage: PI fluorescence as % of CA1 ([3]; 100 nM): 5.9±2.1%
- estrogenic activity as fraction of that of estrone [2]: 1/300

Compound: CC(=O)[C@H]1CC[C@H]2[C@@H]3[C@H](O)C=C4C[C@@H](O)CC[C@]4(C)[C@H]3CC[C@]12C [7α-hydroxy-pregnenolone]
- neuronal damage: PI fluorescence as % of CA1 ([3]; 100 nM): 11.6±4.0%
- less cell death in presence of glutamate ([4]; 10 nM, glutamate 200 μM): up to 10%

Compound: C[C@]12CC[C@H](O)CC1=CC[C@@H]1[C@@H]2CC[C@]2(C)C(=O)CC[C@@H]12 [DHEA]
- effect on normal cell death ([4]; 10 nM): protect significantly
- effect on normal cell death ([4]; 50 nM): protect significantly
- protection of cortical neurones from glutamate neurotoxicity ([4]; doses of 0, 50 and 100 nM, glutamate 200 μM): failing to protect

Compound: C[C@]12CC[C@@H]3c4ccc(O)cc4CC[C@H]3[C@@H]1CC[C@@H]2O [estradiol]
- effect on cell death in glutamate toxicity assay (FIG. 3) ([4]; primary cortical neurones): no effect
